Measured values reported in patent US10179789B2, “Methylenedioxybenzo [I] phenanthridine derivatives used to treat cancer” (Rutgers, The State University of New Jersey, priority 2009, dated 2019).
Where two headings read alike, the source gives them in different places.

Assays:
[1] = test system: P388 mouse leukemia cell line; experiment: Test B. MTT cytotoxicity assay, P388; assay type: cell-based
Method: (§1) Test B. Cytotoxic Assays (Cancer Cell Lines and Efflux Transporter Cell Lines)
(§2) The cytotoxicity was determined using the MTT-microtiter plate tetrazolinium cytotoxicity assay (MTA). The human lymphoblast RPMI 8402 and its camptothecin-resistant variant cell line, CPT-K5 was provided by Dr. Toshiwo Andoh (Aichi Cancer Center Research Institute, Nagoya, Japan). (36) The P388 mouse leukemia cell line and its CPT-resistant TOP1-deficient variant P388/CPT45 (37) were obtained from Michael R. Mattern and Randal K. Johnson (GlaxoSmithKline, King of Prussia, Pa.). The KB3-1 cell line and its multidrug-resistant variant KBV-1 (38) were obtained from K. V. Chin (The Cancer Institute of New Jersey, New Brunswick, N.J.). The KBH5.0 cell line as noted previously (21) was derived from KB3-1 by stepwise selection against Hoechst 33342. The cytotoxicity assay was performed using 96-well microtiter plates. Cells were grown in suspension at 37° C. in 5% CO2 and maintained by regular passage in RPMI medium supplemented with 10% heat inactivated fetal bovine serum, L-glutamine (2 mM), penicillin (100 U/mL), and Streptomycin (0.1 mg/mL). For determination of IC50, cells were exposed continuously for FOUR days to varying concentrations of drug, and MTT assays were performed at the end of the fourth day. […] All assays were performed at least twice in six replicate wells.

[2] = test system: CPT-K5 (camptothecin-resistant variant of RPMI 8402); experiment: Test B. MTT cytotoxicity assay, CPT-K5; assay type: cell-based, human
Method: as §1, §2

[3] = target: T1, human topoisomerase I (Homo sapiens, UniProt P11387); experiment: Test A. Topoisomerase I-mediated DNA cleavage assay; assay type: biochemical; conditions: Relative Effective Concentration; relative to camptothecin arbitrarily assumed as 0.2; same 10% cleavage on plasmid DNA
T1 construct: unnamed fusion partner (recombinant fusion protein, T7 expression system); made in house; host or cells: Escherichia coli
T1 sequence (P11387 1-765): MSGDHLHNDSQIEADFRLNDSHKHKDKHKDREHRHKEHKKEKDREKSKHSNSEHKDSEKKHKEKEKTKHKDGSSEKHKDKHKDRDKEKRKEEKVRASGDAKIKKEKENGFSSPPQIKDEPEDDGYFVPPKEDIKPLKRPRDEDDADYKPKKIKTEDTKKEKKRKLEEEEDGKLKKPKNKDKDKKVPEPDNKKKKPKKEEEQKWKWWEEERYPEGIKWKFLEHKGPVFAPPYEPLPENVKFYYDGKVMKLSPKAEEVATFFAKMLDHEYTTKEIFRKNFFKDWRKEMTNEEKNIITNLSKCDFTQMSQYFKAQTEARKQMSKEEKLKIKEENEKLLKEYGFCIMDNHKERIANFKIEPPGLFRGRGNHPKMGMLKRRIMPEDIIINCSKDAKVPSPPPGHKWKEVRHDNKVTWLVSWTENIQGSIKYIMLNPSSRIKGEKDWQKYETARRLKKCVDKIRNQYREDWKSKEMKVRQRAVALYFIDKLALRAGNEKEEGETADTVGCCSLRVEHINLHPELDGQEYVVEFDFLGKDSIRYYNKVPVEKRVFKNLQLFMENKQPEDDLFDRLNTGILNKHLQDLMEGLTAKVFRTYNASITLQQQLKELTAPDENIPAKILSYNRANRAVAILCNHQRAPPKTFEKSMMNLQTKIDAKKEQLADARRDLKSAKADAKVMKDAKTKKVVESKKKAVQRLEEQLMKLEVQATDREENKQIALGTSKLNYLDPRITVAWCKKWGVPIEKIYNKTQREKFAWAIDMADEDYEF
Description: Test A. Topoisomerase I—Mediated DNA Cleavage Assay Human topoisomerase I was expressed in Escherichia coli and isolated as a recombinant fusion protein using a T7 expression system as described previously (31). Plasmid YepG was also purified by the alkali lysis method followed by phenol deproteination and CsCl/ethidium isopycnic centrifugation method as described (32). The 3′ end labeling of the plasmid was accomplished by digestion with a restriction enzyme followed by end filling with Klenow polymerase as previously described (33). The cleavage assays were performed as previously reported (34,35). The drug and the DNA in presence of topoisomerase I was incubated for 30 min at room temperature. The reactions were terminated by the addition of 5 μL of 5% SDS and 1 mg/mL […] with an additional 1 h of incubation at 37° C. […] After development of the gels, typically 24-h exposure was used to obtain autoradiograms outlining the extent of DNA fragmentation. Topoisomerase I-mediated DNA cleavage values are reported as Relative Effective Concentration (REC). […] Results for the assay for representative compounds of the invention of formula I along with comparison compounds are shown in Table 1.

[4] = test system: P388/CPT45 (CPT-resistant TOP1-deficient variant of P388); experiment: Test B. MTT cytotoxicity assay, P388/CPT45; assay type: cell-based, mouse; conditions: read-out: Cytotoxicity IC50 P388/CPT45
Method: as §1, §2

[5] = Cytotoxicity on KB3-1 (parent cell line); assay type: cell-based; conditions: human
Method: as §2
(§3) The cytotoxicity of the representative compounds of the invention were also tested on cell line KB3-1 (parent cell line), KBV-1 (a variant that overexpresses efflux transporter MDR1) and KBH5.0 (a variant that overexpresses BCRP). Differences in the relative cytotoxicity between the parent and variant cell lines may be indicative of a compound that is a substrate for an efflux transporter. […] Accordingly, compounds of the invention of formula I may be useful to treat tumors that are resistant to other anticancer agents, especially anticancer agents that are susceptible to efflux by BCRP (e.g. anthracyclines, mitoxantrone, topotecan, irinotecan, bisanthrone, doxorubicin, daunorubicin, and epirubin.

[6] = test system: BCRP; experiment: Cytotoxicity on KBH5.0 (overexpresses BCRP); assay type: cell-based; conditions: human
Method: as §2, §3

[7] = test system: MDR1; experiment: Cytotoxicity on KBV-1 (overexpresses MDR1); assay type: cell-based; conditions: human
Method: as §2, §3

[8] = test system: RPMI 8402 human lymphoblast cells; experiment: Test B. MTT cytotoxicity assay, RPMI8402; assay type: cell-based
Method: as §1, §2

[9] = test system: KB3-1 cell line; experiment: Cytotoxicity on KB3-1 (parent cell line); assay type: cell-based
Method: as §2, §3

[10] = test system: KBH5.0 (variant that overexpresses BCRP); experiment: Cytotoxicity on KBH5.0 (overexpresses BCRP); assay type: cell-based; conditions: for substrate for BCRP: not told
Method: as §2, §3

[11] = test system: KBV-1 (variant that overexpresses efflux transporter MDR1); experiment: Cytotoxicity on KBV-1 (overexpresses MDR1); assay type: cell-based
Method: as §2, §3

[12] = Mus musculus, P388, 96 h, read-out: Cytotoxicity IC50 P388
[13] = Homo sapiens, CPT-K5, 96 h, read-out: Cytotoxicity IC50 CPT-K5
[14] = Homo sapiens, RPMI 8402, 96 h, read-out: Cytotoxicity IC50 RPMI8402

| SMILES | IC50 [1, 12] [nM] | IC50 [2, 13] [nM] | TOP1 Mediated DNA Cleavage (REC Value) [3] | melting point | IC50 ([4]; Mus musculus, P388CPT45, 96 h) [nM] | IC50 at 4 days [5] [nM] | IC50 at 4 days [6] [nM] | IC50 at 4 days [7] [nM] | IC50 [8, 14] [nM] | other results |
| --- | --- | --- | --- | --- | --- | --- | --- | --- | --- | --- |
| COc1cc2c(C(=O)NCCC(C)(C)N(C)C)cc3c4cc5c(cc4ncc3c2cc1OC)OCO5 [Compound 42, 2,3-Dimethoxy-N-(3-(dimethylamino)-3-methylbutyl)-8,9-methylenedioxybenzo[i]phenanthridine-12-carboxamide] | 90 | 2070 | 2.3 | 228 to 230 °C | 530 | 50 | 160 | 2500 | 25 |  |
| COc1cc2cc(C(=O)NCCCC(C)(C)N(C)C)c3c4cc5c(cc4ncc3c2cc1OC)OCO5 [Compound 45, 2,3-Dimethoxy-8,9-methylenedioxybenzo[i]phenanthridine-11-carboxylic acid 4-(dimethylamino)-4-methylpentylamide] | 280 | 5500 | 2.5 | 239 to 242 °C | 3250 | 210 | 850 | > 10000 | 280 |  |
| COc1cc2c(C(=O)NCC(C)(C)N)cc3c4cc5c(cc4ncc3c2cc1OC)OCO5 [Compound 33, N-(2-Amino-2-methylpropyl)-2,3-dimethoxy-8,9-methylenedioxybenzo[i]phenanthridine-12-carboxamide] | 20 | 2200 | 1.1 | 269 to 271 °C (dec.) | 760 | 4 | 190 | 480 | 10 |  |
| COc1cc2c(C(=O)NCCCC(C)(C)N(C)C)cc3c4cc5c(cc4ncc3c2cc1OC)OCO5 [Compound 43, 2,3-Dimethoxy-N-(4-(dimethylamino)-4-methylpentyl)-8,9-methylenedioxybenzo[i]phenanthridine-12-carboxamide] | 180 | 3000 | 3.4 | 235 to 237 °C | 400 | 250 | 600 | 2800 | 160 |  |
| COc1cc2c(C(=O)NCC(C)(C)N(C)C)cc3c4cc5c(cc4ncc3c2cc1OC)OCO5 [Compound 31, 2,3-Dimethoxy-N-(2-(dimethylamino)-2-methylpropyl)-8,9-methylene-dioxybenzo[i] phenanthridine-12-carboxamide] |  |  | 0.1 |  |  |  |  |  |  | IC50 [1]: 2 nM; IC50 [2]: 790 nM; IC50 ([4]; P388/CPT45, four days continuous exposure, MTT): 250 nM; IC50 [9]: 1 nM; IC50 [10]: 4 nM; substrate for BCRP [10]: not substrates for BCRP; IC50 [11]: 30 nM; IC50 [8]: 2 nM |
| COc1cc2cc(C(=O)NCCC(C)(C)N(C)C)c3c4cc5c(cc4ncc3c2cc1OC)OCO5 [Compound 44, 2,3-Dimethoxy-8,9-methylenedioxybenzo[i]phenanthridine-11-carboxylic acid 3-(dimethylamino)-3-methylbutylamide] | 270 | 5000 | 0.4 | 233 to 235 °C | 1270 | 240 | 470 | > 10000 | 150 |  |
| COc1cc2c(C(=O)NCCN(C)C)cc3c4cc5c(cc4ncc3c2cc1OC)OCO5 [Compound 206, reference compound] | 3 | 1000 | 0.1 |  | 320 | 5 | 60 | 220 | 3 |  |
| COc1cc2cc(C(=O)NCC(C)(C)N(C)C)c3c4cc5c(cc4ncc3c2cc1OC)OCO5 [Compound 34, 2,3-Dimethoxy-8,9-methylenedioxybenzo[i]phenanthridine-11-carboxylic acid 2-(dimethylamino)-2-methylpropylamide] | 2 | 500 | 0.09 | 222 to 225 °C | 230 | 3 | 10 | 65 | 3 | substrate for BCRP [10]: not substrates for BCRP |
| COc1cc2cc(C(=O)NCCN(C)C)c3c4cc5c(cc4ncc3c2cc1OC)OCO5 [Compound 216, reference compound] | 15 | 630 | 0.2 |  | 260 | 27 | 200 | 1400 | 35 |  |
| CC[C@@]1(O)C(=O)OCc2c1cc1n(c2=O)Cc2cc3c(CN(C)C)c(O)ccc3nc2-1 [Topotecan, topotecan, reference compound] | 45 | > 10000 | 1.0 |  | > 10000 | 40 | 440 | 440 | 21 |  |
| CC[C@@]1(O)C(=O)OCc2c1cc1n(c2=O)Cc2cc3ccccc3nc2-1 [CPT, Camptothecin, reference compound] |  |  | 0.2 |  | > 10000 |  |  |  |  | IC50 ([1]; Mus musculus, 96 h, P388, four days continuous exposure, MTT, read-out: Cytotoxicity IC50 P388): 14 nM; IC50 ([2]; Homo sapiens, 96 h, CPT-K5, four days continuous exposure, MTT, read-out: Cytotoxicity IC50 CPT-K5): > 10000 nM; IC50 at 4 days ([5]; KB3-1 cells (parent cell line), KB3-1 parent cell line, read-out: Cytotoxicity KB3-1): 15 nM; IC50 at 4 days ([6]; KBH5.0 cells (KB3-1 variant that overexpresses BCRP), KBH5.0, overexpresses BCRP, read-out: Cytotoxicity KBH5.0): 26 nM; IC50 at 4 days ([7]; KBV-1, overexpresses MDR1, read-out: Cytotoxicity KBV-1): 25 nM; IC50 ([8]; Homo sapiens, RPMI 8402, 96 h, RPMI8402, four days continuous exposure, MTT, read-out: Cytotoxicity IC50 RPMI8402): 6 nM |
